Test results published in patent publication US5670482A, “Neuropeptide Y antagonists” (Glaxo Wellcome Inc., priority 1992, dated 1997).
pIC50: −log10 of the molar value. Positions of bridges follow the written chain, without caps; N, C: chain ends. Non-standard residues stand in square brackets, D forms with d. Residues, ends and D or L forms follow the SMILES beside them. Chains are numbered I, II in the order given. *: point of attachment. Desaminotyrosyl = O=C(CCc1ccc(O)cc1)*; Orn = NCCC[C@H](N)C(=O)O; Dap = NC[C@H](N)C(=O)O; X1 = Clc1cccc(Cl)c1C*; Aib = CC(C)(N)C(=O)O

Legend:
[1] = tested on: Human erythroleukemic (HEL) cells; assay: Intracellular calcium measurements in HEL cells (Fura-2); format: cell-based; conditions: for HEL CELLS % Fluor (c): agonistic activity: fluorescence induced by 100 nM of the peptide; for pIC50: antagonism of 5 nM NPY-induced calcium signal, read-out: HEL CELLS IC50 (d); for HEL CELLS % INHIB (b): inhibition of increase in HEL cell intracellular calcium induced by 5 nM NPY, 100 nM compound
Experimental: Human erythroleukemic (HEL) cells were loaded with Fura-2 (1 μM for 1 h), washed and then placed in a cuvette (5×10^5 cells in 2.5 ml) and excited simultaneously at 340 and 380 nm in a SLM spectrofluorometer. Fluorescence changes after the addition of NPY and/or peptide analogs were followed by recording emission at 510 nm. Calcium concentrations can be determined through a computer programme by using the ratio of fluorescence 340/380 nm. The agonistic activity of peptide analogs was tested by recording the fluorescence induced upon stimulation of the cells with 100 nM of the peptide and the antagonistic activity by observing the decrease in fluorescence induced by 5 nM NPY in the presence of the analog The results where available are indicated in column (c) of the Table.
The inhibition of the increase in the HEL cell intracellular calcium (induced by 5 nM NPY) achieved by 100 nM concentrations of each compound is shown in column (b) of the Table.

[2] = molecular target: NPY receptors in rat brain membranes; assay: Radioreceptor binding assay (3H-NPY, rat brain membranes); conditions: 37° C.
Experimental: Rat brain membranes were incubated with ^3 H-NPY up to equilibrium at 37° C. in the presence of several peptides at different concentrations and in a final volume of 1 ml. Non-specific binding was determined by adding 100 nM of cold NPY. At the end of the incubation period the samples were either filtered (GF/C filter), or 0.5 ml of cold incubation buffer was added and the tubes centrifuged at 15,000 g for 10 min. The supernatant was discarded and the pellet or filters resuspended and counted by liquid scintillation. Results were processed using a computer programme that calculated IC50, Kd, Bmax and Hill coefficient by linear regression. IC50 results where available are shown in column (a) of the Table.

pIC50 [1] | pIC50 [2] | Compound | HEL CELLS % Fluor (c) [1] | HEL CELLS % INHIB (b) [1]
– | 7.77 | CC[C@H](C)[C@H](NC(=O)CCc1ccc(O)cc1)C(=O)N[C@@H](CC(N)=O)C(=O)N[C@@H](CC(C)C)C(=O)N[C@H](C(=O)N[C@@H](Cc1ccc(O)cc1)C(=O)N[C@@H](CCCNC(=N)N)C(=O)N[C@@H](CC(C)C)C(=O)N[C@@H](CCCNC(=N)N)C(=O)N[C@@H](Cc1ccc(O)cc1)C(N)=O)[C@@H](C)CC [Example 18, desNH2 TyrIleAsnLeuIleTyrArgLeuArgTyr-NH2] (Desaminotyrosyl-INLIYRLRY-NH2) | 28% | 62%
8.82 | 7.82 | CC[C@H](C)[C@H](N)C(=O)N[C@H]1CC(=O)NC[C@@H](C(=O)N[C@@H](Cc2ccc(O)cc2)C(=O)N[C@@H](CCCNC(=N)N)C(=O)N[C@@H](CC(C)C)C(=O)N[C@@H](CCCNC(=N)N)C(=O)N[C@@H](Cc2ccc(O)cc2)C(N)=O)NC(=O)[C@@H]2CCCN2C(=O)[C@@H](NC(=O)[C@@H](N)[C@@H](C)CC)CC(=O)NC[C@@H](C(=O)N[C@@H](Cc2ccc(O)cc2)C(=O)N[C@@H](CCCNC(=N)N)C(=O)N[C@@H](CC(C)C)C(=O)N[C@@H](CCCNC(=N)N)C(=O)N[C@@H](Cc2ccc(O)cc2)C(N)=O)NC(=O)[C@@H]2CCCN2C1=O [Example 7, IleAspProDprTyrArgLeuArgTyr-NH2,Cyclic(2,4'),(2',4)-Diamide] (I: H-IDP[Dap]YRLRY-NH2 / II: H-IDP[Dap]YRLRY-NH2; amide I:2-II:4, I:4-II:2; N-terminus assumed) | 0% | 100%
9.12 | 7.46 | CC[C@H](C)[C@H](N)C(=O)N[C@@H](CSSC[C@H](NC(=O)[C@@H](N)[C@@H](C)CC)C(=O)N1CCC[C@H]1C(=O)N[C@H](C(=O)N[C@@H](Cc1ccc(O)cc1)C(=O)N[C@@H](CCCNC(=N)N)C(=O)N[C@@H](CC(C)C)C(=O)N[C@@H](CCCNC(=N)N)C(=O)N[C@@H](Cc1ccc(O)cc1)C(N)=O)[C@@H](C)CC)C(=O)N1CCC[C@H]1C(=O)N[C@H](C(=O)N[C@@H](Cc1ccc(O)cc1)C(=O)N[C@@H](CCCNC(=N)N)C(=O)N[C@@H](CC(C)C)C(=O)N[C@@H](CCCNC(=N)N)C(=O)N[C@@H](Cc1ccc(O)cc1)C(N)=O)[C@@H](C)CC [Example 13, (IleCysProIleTyrArgLeuArgTyr-NH2)2] (I: H-ICPIYRLRY-NH2 / II: H-ICPIYRLRY-NH2; disulfide I:2-II:2 (inferred); N-terminus assumed) | 0% | 100%
9.60 | > 10.00 | CC[C@H](C)[C@H](N)C(=O)N[C@H]1CC(=O)NCCC[C@@H](C(=O)N[C@@H](Cc2ccc(O)cc2)C(=O)N[C@@H](CCCNC(=N)N)C(=O)N[C@@H](CC(C)C)C(=O)N[C@@H](CCCNC(=N)N)C(=O)N[C@@H](Cc2ccc(O)cc2)C(N)=O)NC(=O)[C@@H]2CCCN2C(=O)[C@@H](NC(=O)[C@@H](N)[C@@H](C)CC)CC(=O)NCCC[C@@H](C(=O)N[C@@H](Cc2ccc(O)cc2)C(=O)N[C@@H](CCCNC(=N)N)C(=O)N[C@@H](CC(C)C)C(=O)N[C@@H](CCCNC(=N)N)C(=O)N[C@@H](Cc2ccc(O)cc2)C(N)=O)NC(=O)[C@@H]2CCCN2C1=O [Example 16, IleAspProOrnTyrArgLeuArgTyrNH2,Cyclic(2,4'),(2',4)-Diamide] (I: H-IDP[Orn]YRLRY-NH2 / II: H-IDP[Orn]YRLRY-NH2; amide I:2-II:4, I:4-II:2; N-terminus assumed) | 0% | 100%
8.30 | 8.72 | CC[C@H](C)[C@H](N)C(=O)N[C@@H](CC(N)=O)C(=O)N1CCC[C@H]1C(=O)NC(CCCC(NC(=O)[C@@H]1CCCN1C(=O)[C@H](CC(N)=O)NC(=O)[C@@H](N)[C@@H](C)CC)C(=O)N[C@@H](Cc1ccc(O)cc1)C(=O)N[C@@H](CCCNC(=N)N)C(=O)N[C@@H](CC(C)C)C(=O)N[C@@H](CCCNC(=N)N)C(=O)N[C@@H](Cc1ccc(O)cc1)C(N)=O)C(=O)N[C@@H](Cc1ccc(O)cc1)C(=O)N[C@@H](CCCNC(=N)N)C(=O)N[C@@H](CC(C)C)C(=O)N[C@@H](CCCNC(=N)N)C(=O)N[C@@H](Cc1ccc(O)cc1)C(N)=O (stereo partly drawn) [Example 14, IleAsnPro TyrArgLeuArgTyr-NH2 (SEQ.ID.No:17) Pim IleAsnPro TyrArgLeuArgTyr-NH2 (SEQ.ID.No:17)] | 0% | 100%

Second part, the compound before the results:

Compound | pIC50 [1] | pIC50 [2] | HEL CELLS % Fluor (c) [1] | HEL CELLS % INHIB (b) [1]
CC[C@H](C)[C@H](N)C(=O)N[C@@H](CC(N)=O)C(=O)N1CCC[C@H]1C(=O)N[C@H](C(=O)N[C@@H](Cc1ccc(O)cc1)C(=O)N[C@@H](CCCNC(=N)N)C(=O)N[C@@H](CC(C)C)C(=O)N[C@@H](CCCNC(=N)N)C(=O)N[C@@H](Cc1ccc(O)cc1)C(N)=O)[C@@H](C)OC [Example 2, IleAsnPro(O-MethylThr)TyrArgLeuArgTyr-NH2] (H-INPT(Me)YRLRY-NH2) | 8.30 | 6.55 | 0% | 100%
CC[C@H](C)[C@H](N)C(=O)N[C@@H](CC(N)=O)C(=O)N1CCC[C@H]1C(=O)NC(C)(C)C(=O)N[C@@H](Cc1ccc(OCc2c(Cl)cccc2Cl)cc1)C(=O)N[C@@H](CCCNC(=N)N)C(=O)N[C@@H](CC(C)C)C(=O)N[C@@H](CCCNC(=N)N)C(=O)N[C@@H](Cc1ccc(O)cc1)C(N)=O [Example 3, IleAsnProAib[O-(2,6-Dichlorobenzyl)Tyr]ArgLeuArgTyr-NH2] (H-INP[Aib]Y(X1)RLRY-NH2; N-terminus assumed) | 8.10 | 6.46 | 0% | 100%
CC[C@H](C)[C@H](N)C(=O)N[C@H]1CCC(=O)NCCC[C@@H](C(=O)N[C@@H](Cc2ccc(O)cc2)C(=O)N[C@@H](CCCNC(=N)N)C(=O)N[C@@H](CC(C)C)C(=O)N[C@@H](CCCNC(=N)N)C(=O)N[C@@H](Cc2ccc(O)cc2)C(N)=O)NC(=O)[C@@H]2CCCN2C(=O)[C@@H](NC(=O)[C@@H](N)[C@@H](C)CC)CCC(=O)NCCC[C@@H](C(=O)N[C@@H](Cc2ccc(O)cc2)C(=O)N[C@@H](CCCNC(=N)N)C(=O)N[C@@H](CC(C)C)C(=O)N[C@@H](CCCNC(=N)N)C(=O)N[C@@H](Cc2ccc(O)cc2)C(N)=O)NC(=O)[C@@H]2CCCN2C1=O [Example 15, IleGluProOrnTyrArgLeuArgTyr-NH2,Cyclic(2,4'),(2',4)-Diamide] (I: H-IEP[Orn]YRLRY-NH2 / II: H-IEP[Orn]YRLRY-NH2; amide I:2-II:4, I:4-II:2; N-terminus assumed) | 9.60 | > 10.00 | 0% | 100%
CC[C@H](C)[C@H](N)C(=O)N[C@H]1CNC(=O)C[C@@H](C(=O)N[C@@H](Cc2ccc(O)cc2)C(=O)N[C@@H](CCCNC(=N)N)C(=O)N[C@@H](CC(C)C)C(=O)N[C@@H](CCCNC(=N)N)C(=O)N[C@@H](Cc2ccc(O)cc2)C(N)=O)NC(=O)[C@@H]2CCCN2C(=O)[C@@H](NC(=O)[C@@H](N)[C@@H](C)CC)CNC(=O)C[C@@H](C(=O)N[C@@H](Cc2ccc(O)cc2)C(=O)N[C@@H](CCCNC(=N)N)C(=O)N[C@@H](CC(C)C)C(=O)N[C@@H](CCCNC(=N)N)C(=O)N[C@@H](Cc2ccc(O)cc2)C(N)=O)NC(=O)[C@@H]2CCCN2C1=O [Example 8, IleDprProAspTyrArgLeuArgTyr-NH2,Cyclic(2,4'),(2',4)-Diamide] (I: H-I[Dap]PDYRLRY-NH2 / II: H-I[Dap]PDYRLRY-NH2; amide I:2-II:4, I:4-II:2; N-terminus assumed) | 8.60 | 8.12 | 0% | 100%
IleCysProCysTyrArgLeuArgTyr-NH2,Cyclic(2,2'), (4,4')-Disulfide Dimer and IleCysProCysTyrArgLeuArgTyr-NH2,Cyclic(2,4'),(4,2')-Disulfide Dimer [Example 6] | 8.70 | 6.60 | 0% | 100%
